From PubChem BioAssay AID2060488 (Molecular Pharmacology Branch, DTP, NCI, 2025) come the findings set out here.

pIC50: −log10 of the molar value. Values joined by “and” are separate entries in the source; they are usually repeats but may differ in a detail not shown here. Equal entries are not always repeated.

By viability, T/C is commonly meant the ratio of treated to control. Usually pIC50 stands for the IC50 on a negative log10 scale, so that one unit is a factor of ten. As a reminder, the IC50 is the point on the concentration scale where inhibition reaches its midpoint.

The subject of the experiment is 966289-007-R4-J1-PDC complex spheroid viability. Put plainly: Anticancer human tumor 966289-007-R4-J1-PDC patient-derived pancreatic adenocarcinoma cell line growth inhibition [GQUAD]. As to conditions: for viability, T/C: stronger effect = lower value. An excerpt:
DNA G-quadruplex Stabilizer Agents in Combinations in Complex Spheroids
A high-throughput screen of multi-cell type tumor spheroids was designed to identify active combinations of DNA G-quadruplex stabilizer agents and targeted small molecules. Complex spheroids include a stromal component modeled by human endothelial cells (HUVEC) and fibroblasts modeled by human mesenchymal stem cells (MSCs). The concentration ranges selected for each drug and investigational agent were based upon clinically achievable concentrations if the clinical Cmax of the agent was known.
Compounds. The drugs and investigational agents: pidnarulex (CX-5461; NSC782164), APTO-253 (NSC789042), BRACO-19 (NSC847499), peposertib (NSC802822), ceralasertib (NSC780249), elimusertib (NSC800525), camonsertib (NSC841442), AZD-1390 (NSC803789), olaparib (NSC753686), talazoparib (NSC767125), ART-558 (NSC835418), sotorasib (NSC818433), MRTX-1133 (NSC836407), SN-38 (NSC673596), topotecan (NSC609699), etoposide (NSC141540), doxorubicin (NSC123127), gemcitabine (NSC613327), 5-fluorouracil (NSC19893), paclitaxel (NSC125973), vemurafenib (NSC761431), panobinostat (NSC761190), R-306465 (JNJ-16241199; NSC773264), adavosertib (NSC754352), TP-3654 (NSC805149), carboplatin (NSC241240), KSQ-4279 (NSC840948), and staurosporine (NSC755774) were obtained from the National Cancer Institute (NCI) Developmental Therapeutics Program Chemical Repository (34). The FDA-approved anticancer drug set is available from the NCI Developmental Therapeutics Program. […] The stock solutions were prepared in dimethyl sulfoxide (DMSO, Sigma-Aldrich, St. Louis, MO, cat. D2650) at 800-fold the tested concentration and stored at -70 degrees C prior to their use. All drugs and investigational agents were tested over a range starting from a high concentration at or near the clinical Cmax and decreasing in half-log increments. If the clinical Cmax for an agent had not been determined, the highest concentration tested was 10 microM.
2.3 Cell Culture. All cells were maintained in an incubator at 37 degrees C and 5% CO2 with 95% humidity. The PDC lines were cultured according to standard operating procedures established by the NCI PDMR. All PDCs were thawed and cultured in Matrigel-coated flasks prepared with a working solution of 1X Ham's F-12 nutrient mix, without supplementation (Invitrogen, cat. 11765054), 100 U/mL penicillin-streptomycin (Invitrogen, cat. 15140122), and 2.5% Matrigel (Corning Inc., cat. 354248) for the first three passages. The 857933-349-R-J2-PDC line was cultured in 6C/Colon 1B media, which includes advanced DMEM/F-12 (Thermo Fisher Scientific, cat. 12634028), 10 mM HEPES (Thermo Fisher Scientific, cat. 15630080), 1X GlutaMAX supplement (Thermo Fisher Scientific, cat. 35050061), 0.1 mg/mL primocin (InvivoGen, cat. ant-pm-2), 10% defined fetal bovine serum, heat inactivated (HyClone Laboratories Inc., cat. SH30070.03HI), 50% L-WRN conditioned media (ATCC, cat. CRL-3276), 1.25 mM N-Acetyl-L-cysteine (Sigma-Aldrich, cat. A9165), 10 mM nicotinamide (Sigma-Aldrich, cat. N0636), 1X B-27 supplement (Thermo Fisher Scientific, cat. 17504044), 1X N-2 supplement (Thermo Fisher Scientific, cat. 17502048), 10 microM Y-27632 dihydrochloride (Tocris Bioscience, cat. 1254), and 50 ng/mL human EGF recombinant protein (Thermo Fisher Scientific, cat. PHG0311). The 485176-168-R4-J1-PDC line was cultured in Panc media, which includes all 6C/Colon 1B media components plus 100 ng/mL human FGF-10 (Thermo Fisher Scientific, cat. 100-26), 500 nM SB-431542 (Selleckchem, cat. S1067), and gastrin (Tocris, cat. 3006).
[…]
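Note: spheroids exposed to the agents for seven days before readout.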
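Throughout, for viability, T/C: percent viability relative to DMSO vehicle control wells taken as 100%.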

Turning to `C=CCn1c(=O)c2cnc(Nc3ccc(N4CCN(C)CC4)cc3)nc2n1-c1cccc(C(C)(C)O)n1`, the viability, T/C by setting is: (compound 0.0316 µM) 102% and 99.9% and 97.9%; (compound 0.1 µM) 105% and 97.2% and 108%; (compound 0.316 µM) 110% and 113% and 120%; (compound 1 µM) 101% and 105% and 81.8%; (compound 3.16 µM) 4.65% and 8.05% and 2.6%; (compound 10 µM) 1.72% and 1.84% and 1.48%. Moreover, for the setting “curve of compound”, the pIC50 was 5.74 and 5.72 and 5.80.
For the compound `CC(C)(O)C1CCC(Nc2ccc3ncc(-c4cccc(C(F)(F)F)c4)n3n2)CC1` (stereo not drawn), the viability, T/C was 105% and 92.3% and 96.8% (compound 0.0316 µM); 100% and 95.3% and 106% (compound 0.1 µM); 98.5% and 95.1% and 91.2% (compound 0.316 µM); 93.8% and 90.5% and 107% (compound 1 µM); 42.9% and 43.5% and 36.2% (compound 3.16 µM); 75.9% and 49.8% and 33.1% (compound 10 µM). The pIC50 (curve of compound) was < 5.00 and 5.54 and 5.61.
Regarding `CCCS(=O)(=O)Nc1ccc(F)c(C(=O)c2c[nH]c3ncc(-c4ccc(Cl)cc4)cc23)c1F`, the viability, T/C reads like this: (compound 0.0316 µM) 109% and 105% and 99.4%; (compound 0.1 µM) 102% and 96% and 99.5%; (compound 0.316 µM) 111% (2×) and 97.8%; (compound 1 µM) 110% and 106% and 114%; (compound 3.16 µM) 114% (2×) and 108%; (compound 10 µM) 37.5% and 36.5% and 38%. Further, the pIC50 (curve of compound) was 5.09 and 5.10.
Consider `COc1ncnc(C2CC2)c1-c1ncc2cnn(Cc3ccc(-c4nc(C(F)(F)F)cn4C(C)C)cc3)c2n1`, for which the viability, T/C runs as follows: (compound 0.0316 µM) 92.2% and 102% and 104%; (compound 0.1 µM) 102% and 103% and 100%; (compound 0.316 µM) 101% and 102% and 100%; (compound 1 µM) 107% and 98% and 97%; (compound 3.16 µM) 103% and 106% (2×); (compound 10 µM) 116% and 108% (2×). Under “curve of compound”, the pIC50 was less than 5.00.
In the case of `Cc1cnc(CNC(=O)c2c(=O)c3ccc(N4CCCN(C)CC4)nc3n3c2sc2ccccc23)cn1`, the viability, T/C was 36.7% [middle of 12 runs] (compound 0.1 µM); 12.6% [middle of 12 runs] (compound 0.316 µM); 6.91% [middle of 11 runs] (compound 1 µM); 5.45% [middle of 11 runs] (compound 3.16 µM); 0.16% [middle of 11 runs] (compound 10 µM). Besides, the IC50 (compound alone, run of 03/18/2024) was 81.7 nM [middle of 11 runs].
For `O=C(NO)c1cnc(N2CCN(S(=O)(=O)c3ccc4ccccc4c3)CC2)nc1`, the viability, T/C runs as follows: (compound 0.0316 µM) 104% and 97% and 89.4%; (compound 0.1 µM) 104% (2×) and 99.9%; (compound 0.316 µM) 33.4% and 39% and 70%; (compound 1 µM) 7.89% and 9.13% and 14.1%; (compound 3.16 µM) 1.55% and 1.2% and 4.88%; (compound 10 µM) 0.4% and 0.34% and 0.29%. The pIC50 (curve of compound) was 6.62 and 6.59 and 6.32.
With `CC(C)n1c(=O)n(C)c2cnc3cc(F)c(-c4ccc(OCCCN5CCCCC5)nc4)cc3c21` + CN(C)c1ccc(Nc2c3ccc(NC(=O)CCN4CCCC4)cc3nc3cc(NC(=O)CCN4CCCC4)ccc23)cc1, the pIC50 runs as follows: (curve of first compound, second compound 0.0316 µM) less than 5.00; (curve of first compound, second compound 0.1 µM) less than 5.00; (curve of first compound, second compound 0.316 µM) less than 5.00; (curve of first compound, second compound 1 µM) less than 5.00; (curve of first compound, second compound 3.16 µM) 5.25; (curve of first compound, second compound 10 µM) 6.57. The viability, T/C is 108% (second compound 0.0316 µM, first compound 0.0316 µM); 105% (second compound 0.0316 µM, first compound 0.1 µM); 108% (second compound 0.0316 µM, first compound 0.316 µM); 106% (second compound 0.0316 µM, first compound 1 µM); 108% (second compound 0.0316 µM, first compound 3.16 µM); 87.5% (second compound 0.0316 µM, first compound 10 µM). Further, the viability, T/C is 103% (second compound 0.1 µM, first compound 0.0316 µM); 102% (second compound 0.1 µM, first compound 0.1 µM); 106% (second compound 0.1 µM, first compound 0.316 µM); 106% (second compound 0.1 µM, first compound 1 µM); 107% (second compound 0.1 µM, first compound 3.16 µM); 88% (second compound 0.1 µM, first compound 10 µM). Further, the viability, T/C by setting is: (second compound 0.316 µM, first compound 0.0316 µM) 98.1%; (second compound 0.316 µM, first compound 0.1 µM) 103%; (second compound 0.316 µM, first compound 0.316 µM) 107%; (second compound 0.316 µM, first compound 1 µM) 109%; (second compound 0.316 µM, first compound 3.16 µM) 107%; (second compound 0.316 µM, first compound 10 µM) 86.6%. The viability, T/C by setting is: (second compound 1 µM, first compound 0.0316 µM) 103%; (second compound 1 µM, first compound 0.1 µM) 99.5%; (second compound 1 µM, first compound 0.316 µM) 107%; (second compound 1 µM, first compound 1 µM) 108%; (second compound 1 µM, first compound 3.16 µM) 103%; (second compound 1 µM, first compound 10 µM) 70.5%. In addition, the viability, T/C by setting is: (second compound 3.16 µM, first compound 0.0316 µM) 102%; (second compound 3.16 µM, first compound 0.1 µM) 104%; (second compound 3.16 µM, first compound 0.316 µM) 107%; (second compound 3.16 µM, first compound 1 µM) 102%; (second compound 3.16 µM, first compound 3.16 µM) 87.1%; (second compound 3.16 µM, first compound 10 µM) 14.1%. Also, the viability, T/C is, setting by setting: (second compound 10 µM, first compound 0.0316 µM) 98.7%; (second compound 10 µM, first compound 0.1 µM) 79%; (second compound 10 µM, first compound 0.316 µM) 46%; (second compound 10 µM, first compound 1 µM) 16%; (second compound 10 µM, first compound 3.16 µM) 5.65%; (second compound 10 µM, first compound 10 µM) 1.75%.
